{"source": "patent US10301664B2", "about": "“Repurposing non-antimicrobial drugs and clinical molecules to treat bacterial infections” (Purdue Research Foundation, priority 2015, dated 2019)", "key": {"A. baumannii": {"tested_on": "A. baumannii", "assay": "MIC against G-ve with and without colistin: A. baumannii", "assay_type": "cell-based"}, "[1]": {"conditions": "cited from earlier work"}, "P. aeruginosa": {"tested_on": "P. aeruginosa", "assay": "MIC against G-ve with and without colistin: P. aeruginosa", "assay_type": "cell-based", "conditions": "without colistin"}, "S. Typhimurium": {"tested_on": "S. Typhimurium", "assay": "MIC against G-ve with and without colistin: S. Typhimurium", "assay_type": "cell-based"}, "K. pneumonia": {"tested_on": "K. pneumonia", "assay": "MIC against G-ve with and without colistin: K. pneumonia", "assay_type": "cell-based", "conditions": "without colistin"}, "E.. coli O157:H7": {"tested_on": "E.. coli O157:H7", "assay": "MIC against G-ve with and without colistin: E. coli O157:H7", "assay_type": "cell-based"}, "[2]": {"tested_on": "VISA and VRSA (14) clinical isolates", "assay": "MIC against Gram +ve clinical isolates: VISA and VRSA", "assay_type": "cell-based, S. aureus", "conditions": "Staphylococcus aureus"}, "[3]": {"tested_on": "MRSA (23) clinical isolates", "assay": "MIC against Gram +ve clinical isolates: MRSA", "assay_type": "cell-based, S. aureus", "conditions": "for MIC50: MRSA (23)"}, "MRSA USA300": {"tested_on": "MRSA USA300", "assay": "Mouse model of MRSA systemic infection (lethal)", "assay_type": "in vivo, BALB/c mice", "conditions": "oral 30 mg/kg once daily, three doses", "text": "For MRSA systemic infection, neutropenic Female BALB/c mice were inoculated IP with 1×10^9 MRSA USA300."}, "[4]": {"tested_on": "VRE (14) clinical isolates", "assay": "MIC against Gram +ve clinical isolates: VRE", "assay_type": "cell-based, enterococcus"}, "P. aeruginosa ATCC 15442": {"tested_on": "P. aeruginosa ATCC 15442", "assay": "Library hits: MIC against P. aeruginosa", "assay_type": "cell-based"}, "[5]": {"tested_on": "K. pneumoniae ATCC BAA-1705", "assay": "Library hits: MIC against K. pneumoniae", "assay_type": "cell-based"}, "E. cloacae ATCC BAA-1143": {"tested_on": "E. cloacae ATCC BAA-1143", "assay": "Library hits: MIC against E. cloacae", "assay_type": "cell-based"}, "[6]": {"tested_on": "A. baumannii ATCC BAA-1605", "assay": "Library hits: MIC against A. baumannii", "assay_type": "cell-based"}}, "note": "Where two headings read alike, the source gives them in different places.", "data": [{"compound": "O=c1c2ccccc2[se]n1-c1ccccc1", "note": "[Ebselen]", "values": [{"measurement": "MIC, colistin (+)", "setting": "A. baumannii; with sub-inhibitory colistin 0.0625 μg/ml", "result": 0.25, "unit": "µg/mL"}, {"measurement": "MIC, colistin (−)", "setting": "A. baumannii; without colistin", "result": 16, "unit": "µg/mL"}, {"measurement": "increase in selenium concentration in the blood", "setting": "[1]; 30 mg/kg dose", "result": "0.84±0.1", "unit": "mg/L^−1"}, {"measurement": "plasma concentration", "setting": "[1]; 30 mg/kg dose", "result": 2910, "unit": "ng/mL"}, {"measurement": "clinically achievable blood concentration", "setting": "[1]; in vivo", "result": 2.91, "unit": "µg/mL"}, {"measurement": "MIC, colistin (−)", "setting": "P. aeruginosa", "result": ">256", "unit": "µg/mL"}, {"measurement": "MIC, colistin (+)", "setting": "S. Typhimurium; with sub-inhibitory colistin 0.25 μg/ml", "result": 0.0625, "unit": "µg/mL"}, {"measurement": "MIC, colistin (−)", "setting": "S. Typhimurium; without colistin", "result": 32, "unit": "µg/mL"}, {"measurement": "MIC, colistin (−)", "setting": "K. pneumonia", "result": 64, "unit": "µg/mL"}, {"measurement": "MIC, colistin (+)", "setting": "E.. coli O157:H7; E. coli O157:H7, with sub-inhibitory colistin 0.0625 μg/ml", "result": 0.125, "unit": "µg/mL"}, {"measurement": "MIC, colistin (−)", "setting": "E.. coli O157:H7; E. coli O157:H7, without colistin", "result": 32, "unit": "µg/mL"}, {"measurement": "MIC50", "setting": "[2]", "result": 0.125, "unit": "µg/mL"}, {"measurement": "MIC50", "setting": "[2]; read-out: MIC50", "result": 0.25, "unit": "µg/mL"}, {"measurement": "MIC50", "setting": "[3]; second column per drug", "result": 0.25, "unit": "µg/mL"}, {"measurement": "MIC90", "setting": "[3]; Staphylococcus aureus, MRSA, read-out: MIC90 (MICs at which 90% of MRSA isolates were inhibited)", "result": 0.25, "unit": "µg/mL"}, {"measurement": "MIC50", "setting": "[3]; Staphylococcus aureus, read-out: MIC50", "result": 0.25, "unit": "µg/mL"}, {"measurement": "mice survival", "setting": "MRSA USA300", "result": 60, "unit": "%"}, {"measurement": "MIC50", "setting": "[4]; Enterococcus, read-out: MIC50", "result": 0.5, "unit": "µg/mL"}, {"measurement": "MIC50", "setting": "[4]; second column per drug", "result": 0.5, "unit": "µg/mL"}]}, {"compound": "O=c1[nH]c(=O)n([C@H]2C[C@H](O)[C@@H](CO)O2)cc1F", "note": "[FdUrd, 5-fluoro-2′-deoxyuridine]", "values": [{"measurement": "MIC/MBC", "setting": "P. aeruginosa ATCC 15442", "result": ">16", "unit": "µM"}, {"measurement": "MIC/MBC", "setting": "[5]", "result": 8, "unit": "µM"}, {"measurement": "MIC/MBC", "setting": "E. cloacae ATCC BAA-1143", "result": ">16", "unit": "µM"}, {"measurement": "MIC/MBC", "setting": "[6]", "result": ">16", "unit": "µM"}]}]}
